{"source": "patent EP4577640B1", "about": "“COMPOSITION COMPRISING AVENANTHRAMIDE C FOR INDUCING DIFFERENTIATION OF MESENCHYMAL STEM CELLS INTO CHONDROCYTES AND METHOD OF USING THE SAME” (Medeze Treasury Ptd. Ltd, priority 2023, dated 2025)", "key": {"[1]": {"test_system": "Adipose-derived Mesenchymal Stem Cells (MSCs)", "test": "Immunofluorescence analysis of chondrocyte marker proteins on day 21 of in vitro chondrogenic differentiation (monolayer culture)", "assay_type": "cell-based, human", "description": "(§1) In Vitro Chondrogenic Differentiation: In Vitro, chondrogenic differentiation using monolayer culture was performed. P4 MSCs were seeded in Gelatin-coated 24 well plates at 6000 cells/cm2. MSCs were expanded for 3 days before switching to the following Chondrocyte differentiation media (CDM) for 21 days (FIG. 1A).\n(§2) Standard chondrocyte differentiation medium (STD) consists of DMEM Low Glucose (DMEM LG; Gibco #31600083), supplemented with 0.5 µg/ml hydrocortisone (Sigma-Aldrich #H0888), 1% Fetal bovine serum (FBS; Biowest #S181B), 1 X Insulin-Transferrin-Selenium-X (ITS-X; Gibo #51500056) or ITS+1 Liquid Media Supplement (Sigma-Aldrich #I2521), 10ng/ml recombinant human TGF-beta 3 (R&D Systems #8420-B3-025), […] L-ascorbate-2-phosphate (Sigma-Aldrich #49752), 1% Penicillin-Streptomycin (pen-strep; Gibco #15140122) and 500ng/ml Amphotericin B (Amp B; Gibco #15290026). Standard CDM (STD) will be used as a control (FIG. 1A).\nStandard chondrocyte differentiation medium (STD) or CDM1 is then supplemented with 3 different treatment groups: 100 nM Avenanthramide C (Avn C; Sigma-Aldrich #36465) in CDM2, 500 ug/mL Chondroitin Sulfate (5 x CS; Sigma-Aldrich #C4384) in CDM3, and combination of 100 nM Avenanthramide C and 500 ug/mL Chondroitin Sulfate in CDM4 (FIG. 1A). […]"}, "[2]": {"test_system": "Adipose-derived Mesenchymal Stem Cells (MSCs)", "test": "RT-PCR mRNA expression analysis of chondrocyte markers relative to GAPDH", "assay_type": "cell-based, human", "conditions": "Avn C treatment alone", "description": "as §1\nas §2, with “1A). […]” for “1A).”\nIt is imperative to investigate the impact of Avn C on transcriptionally regulated chondrocyte properties, both when used individually and in conjunction with chondroitin sulfate at an optimal dosage of 500ug/mL (5X CS). To assess this, RT-PCR mRNA expression analysis is employed, which offers precise quantitative data on relative mRNA expressions. […]"}, "[3]": {"test_system": "mouse articular chondrocytes", "conditions": "cited from earlier work"}}, "data": [{"smiles": "O=C(/C=C/c1ccc(O)c(O)c1)Nc1ccc(O)cc1C(=O)O", "note": "[Avn C, Avenanthramide C]", "values": [{"measurement": "expression of the COL2A1 protein (immunofluorescence signals)", "setting": "[1]; 21-day treatment, CDM2 (STD + 100 nM Avn C) compared to CDM1 (STD)", "value": "significantly increasing the expression of the COL2A1 protein"}, {"measurement": "optimal concentration of Avn C for enhancing Collagen 2A1 protein signals", "setting": "[1]; 21 days in STD with 0 nM, 10 nM, 100 nM, 1 uM, 10 uM, 50 uM Avn C, MSCs from a different individual", "value": "around 100 nM"}, {"measurement": "COL2A1 expression, transcriptional versus protein level", "setting": "[2]", "value": "influences COL2A1 at protein levels (FIGS. 2 and 3) rather than at the transcriptional level"}, {"measurement": "expression of catabolic factors MMP-3, -12, and -13", "setting": "[3]; induced by IL-1β in mouse articular chondrocytes", "value": "effectively suppressed the expression of catabolic factors"}, {"measurement": "IL-1β-mediated reduction of mature factors Collagen 2 (COL2A1) and SOX9", "setting": "[3]; mouse articular chondrocytes", "value": "did not impact the IL-1β-mediated reduction of mature factors"}]}]}
